# Measured values taken from US20240294478A1, “ANTI-CANCER COMPOUNDS AND METHODS OF USE” (YALE UNIVERSITY, priority 2021, published 2024).
# Key:
# [1] = test system: LN229 MGMT+/−, MMR+/− cells; experiment: Micronuclei analysis; format: cell-based, human; details: 20 μM, 48 h
# Excerpt: FIGS. 8A-8K. (FIG. 8A) Change in percent cells with 1 micronuclei from baseline (DMSO control) after treatment as in FIGS. 5A and 5C. Columns, mean; error bars, SD; n>15 technical replicates; **** p<0.0001; ns, not significant. (FIG. 8B) Short-term viability assay curves for KL-50 in PD20 cells, deficient in FANCD2 (FANCD2−/−) or complemented with FANCD2 (+FANCD2). (FIG. 8C) Short-term viability assay curves for KL-50 in PEO4 (BRCA2+) and PEO1 (BRCA2−/−) cells pre-treated with 0.01% DMSO control or 10 μM O^6BG (+O^6BG) for 1 h prior to KL-50 addition. (FIG. 8D) Short-term viability assay curves for KL-50 in DLD1 BRCA2+/− and BRCA2−/−cells pre-treated with 0.01% DMSO control or 10 μM O^6BG (+O^6BG) for 1 h prior to KL-50 addition. For FIGS. 8B-8D, points, mean; error bars, SD; n=3 technical replicates. […] (FIG. 8E) Validation of micronuclei identification using olaparib as positive control. […] The % FANCD2 ubiquitination (% FANCD2 Ub) is quantified as the background-corrected integrated band intensity of the upper band divided by the sum of the background-corrected integrated band intensities of the upper and lower bands. […]
# Micronuclei Analysis. An automated image analysis pipeline was developed by YCMD using InCell Analyzer software to quantify micronuclei formation. […]
# [2] = test system: DLD1 BRCA2+/− and BRCA2−/− cells; experiment: Short-term viability assay, DLD1 BRCA2 isogenic model +/- O6BG; format: cell-based, human
# Procedure: (§1) FIGS. 8A-8K. (FIG. 8A) Change in percent cells with 1 micronuclei from baseline (DMSO control) after treatment as in FIGS. 5A and 5C. […] (FIG. 8B) Short-term viability assay curves for KL-50 in PD20 cells, deficient in FANCD2 (FANCD2−/−) or complemented with FANCD2 (+FANCD2). (FIG. 8C) Short-term viability assay curves for KL-50 in PEO4 (BRCA2+) and PEO1 (BRCA2−/−) cells pre-treated with 0.01% DMSO control or 10 μM O^6BG (+O^6BG) for 1 h prior to KL-50 addition. (FIG. 8D) Short-term viability assay curves for KL-50 in DLD1 BRCA2+/− and BRCA2−/−cells pre-treated with 0.01% DMSO control or 10 μM O^6BG (+O^6BG) for 1 h prior to KL-50 addition. For FIGS. 8B-8D, points, mean; error bars, SD; n=3 technical replicates. […] Change in percent cells with 1 micronuclei from baseline (DMSO control) after treatment with olaparib (10 μM) for 48 h in LN229 MGMT+/−, MMR+/−cells. […] Western blot analysis of FANCD2 ubiquitination in LN229 MGMT+/−, MMR+/−cells and PD20 FANCD2-deficient cells, complemented with empty vector (FANCD2+EV), wildtype FANCD2 (PD20+FD2) or ubiquitination-mutant FANCD2 (PD20+KR). The % FANCD2 ubiquitination (% FANCD2 Ub) is quantified as the background-corrected integrated band intensity of the upper band divided by the sum of the background-corrected integrated band intensities of the upper and lower bands. The fold change in % FANCD2 ubiquitination is presented for each cell line relative to DMSO-treated cells. Vinculin serves as loading control. For 8J-8K, points, mean; error bars, SD; n=3 technical replicates.
# (§2) Short-term Cell Viability Assay. Cells were seeded in 96-well plates at 1000 or 2000 cells/well and allowed to adhere at 23° C. for 60 min and then incubated overnight at 37° C. […] Cells were imaged on a Cytation 3 imaging reader (BioTek) and quantified using CellProfiler software. For in vitro short-term growth delay experiments, IC50 values were determined from the nonlinear regression equation, [inhibitor] vs normalized response with variable slope.
# [3] = test system: LN229 MGMT−/MMR− intracranial tumors; experiment: Orthotopic intracranial LN229 MGMT-/MMR- model; format: in vivo, mouse; details: 25 mg/kg IP M-F x 1 week as printed
# Excerpt: FIGS. 10A-10G. KL-50 is efficacious in an LN229 MGMT−/MMR− intracranial model and is well tolerated with limited myelosuppression at supratherapeutic doses. […] (FIG. 10B) Mean body change with SEM of mice during maximum tolerated dose experiment in non-tumor bearing mice. (FIGS. 10C-10G) Complete blood counts for mice pre-treatment and 7 days post-treatment with escalations of single dose KL-50 delivered PO. WBC lower limit of normal (LLN): 2.2 K/L; Neutrophils LLN: 0.42 K/L; Lymphocyte LLN: 1.7 K/L; RBC LLN: 3.47 M/L; Platelet LLN: 155 K/L. *, P<0.05; ****, P<0.0001.
# Mouse Protocol for Intracranial Study. LN229 MGMT−/MMR− cells stably expressing firefly luciferase (lentivirus-plasmids from Cellomics Technology; PLV-10003), were injected intracranially using a stereotactic injector. Briefly, 1.5 million cells in […] PBS were injected into the brain and the mice were imaged weekly using the IVIS Spectrum In Vivo Imaging System (PerkinElmer) according to the manufacturer's protocol. Images were taken on a weekly basis and acquired 10 min post intraperitoneal injection with d-luciferin (150 mg/kg of animal mass). […] Quantification of BLI flux (photons/see) was made through the identification of a region of interest (ROI) for each tumor.
# [4] = test system: PD20 cells, deficient in FANCD2 (FANCD2−/−) or complemented with FANCD2; experiment: Short-term viability assay, PD20 cells; format: cell-based, human; details: PD20 FANCD2−/− vs +FANCD2
# Procedure: as §1, §2
SMILES,micronuclei formation ([1]; greatest in MGMT−/MMR− cells),"therapeutic index (TI), ratio of IC50 values in MGMT+/BRCA2+ cells compared to MGMT−/BRCA2− cells ([2]; DLD1 isogenic model)","effect of BRCA2 loss on toxicity ([2]; two MGMT-proficient cell models, following MGMT depletion via O6BG)",intracranial tumor growth (BLI) [3],sensitivity of FANCD2-deficient cells [4],foci induction or micronuclei formation in MGMT−/MMR− cells [1]
NC(=O)c1ncn2c(=O)n(CCF)nnc12 [KL-50],significant increase in micronuclei,~600 fold,BRCA2 loss enhanced the toxicity,effective,hypersensitive,–
"Cn1nnc2c(C(N)=O)ncn2c1=O [TMZ, 4-methyl-5-oxo-2,3,4,6,8-pentazabicyclo[4.3.0]nona-2,7,9-triene-9-carboxamide, reference compound]",–,–,–,only transiently suppressed tumor growth,–,not observed
